Experimental data: patent publication US20120220567A1, “BENZO-FUSED OXAZEPINE COMPOUNDS AS STEAROYL-COENZYME A DELTA-9 DESATURASE INHIBITORS” (priority 2009, published 2012)
Where two headings read alike, the source gives them in different places.

Target: T1, SCD-1 (Homo sapiens, UniProt O00767)
T1 construct: 50 μg of protein from a HepG2 cell P2 pellet; endogenous in cells; host or cells: HepG2 cells (P2 pellet)
T1 sequence (O00767 1-359): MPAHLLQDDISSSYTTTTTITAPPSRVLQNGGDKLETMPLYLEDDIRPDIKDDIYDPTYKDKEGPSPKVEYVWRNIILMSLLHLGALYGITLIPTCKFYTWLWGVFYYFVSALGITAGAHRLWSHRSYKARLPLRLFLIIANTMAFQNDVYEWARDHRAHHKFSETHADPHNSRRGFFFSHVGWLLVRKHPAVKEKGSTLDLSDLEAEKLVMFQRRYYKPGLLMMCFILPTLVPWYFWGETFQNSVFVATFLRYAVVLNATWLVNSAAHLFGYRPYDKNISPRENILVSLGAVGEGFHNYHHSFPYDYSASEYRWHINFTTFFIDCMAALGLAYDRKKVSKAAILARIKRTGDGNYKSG
Assay: Stearoyl-CoA desaturase assay (HepG2 cell P2 pellet)
Assay type: biochemical
Details: protein from HepG2 cell P2 pellet, 20 μM stearoyl-CoA, 15 min at 25° C., read-out: Ave IC50
Experimental: Stearoyl-CoA desaturase assays were performed in according to Talamo and Bloch. […] Assays were run in triplicate in 100-μl volumes of 100 mM TrisHCl, pH 7.3, containing 20 μM stearoyl-CoA, 2 mM β-NADH, and 50 μg of protein from a HepG2 cell P2 pellet. Since SCD-1 is the only isoform of SCD expressed in these cells, the assay is specific for SCD-1 with these cells as the source of enzyme. Reaction mixtures were incubated fifteen minutes at 25° C. and reactions were then stopped with a volume of trichloroacetic acid giving a final concentration of 0.2%. After five minutes, a 90-μl volume was transferred to a Millipore Multiscreen HTS 96-well filtration plate (MSHVN4B50) containing 125 μl of 10% charcoal in each well, to which vacuum had been previously applied. Plates were shaken fifteen minutes and then filtered into a collection plate. Fifty-μI volumes of filtrate were transferred to another plate containing 150 μl of MicroScint 40 for counting on a TopCount scintillation counter.

[1] = Table 2, compounds of formula (Ib)
[2] = Table 3, compounds of formula (Ic)
[3] = Table 1, compounds of formula (Ia)

Compound | IC50 [1] | also measured
O=C(O)CNC(=O)c1cnc(N2CCC3(CC2)CCN(Cc2cccc(C(F)(F)F)c2)c2ccccc2O3)s1 [Compound 136] | 0.5 to 49 nM | 
O=C(O)c1ccc(N2CCC3(CC2)CCN(Cc2cccc(C(F)(F)F)c2)c2ccccc2O3)nn1 [Compound 172, 6-(5-(3-(trifluoromethyl)benzyl)-4,5-dihydro-3H-spiro[benzo-[b][1,4]oxazepine-2,4′-piperidine]-1′-yl)pyridazine-3-carboxylic Acid] |  | IC50 [2]: 500 to 10000 nM
O=C(NCCc1ccccc1)c1ccc(N2CCC3(CC2)CCN(Cc2cccc(C(F)(F)F)c2)c2ccccc2O3)nn1 [Compound 155] |  | IC50 [2]: 0.5 to 49 nM
O=C(O)CCNC(=O)c1cnc(N2CCC3(CC2)CCN(Cc2cccc(C(F)(F)F)c2)c2ccccc2O3)s1 [Compound 129] | 0.5 to 49 nM | 
CC(C)(C)c1ccc(CN2CCC3(CCN(c4ccc(C(=O)NCCC5CC5)nn4)CC3)Oc3c(F)cccc32)cc1 [Compound 150] |  | IC50 [2]: 50 to 499 nM
CC(=O)NCC(=O)N1CCC2(CC1)CCN(Cc1ccc(Br)s1)c1ccccc1O2 [Compound 34] |  | IC50 [3]: 500 to 10000 nM
NC(=O)c1ccc(N2CCC3(CC2)CCN(Cc2ccc(Oc4ccccc4)cc2)c2ccccc2O3)nn1 [Compound 184] |  | IC50 [2]: 0.5 to 49 nM
O=C(NCCC1CC1)c1ccc(N2CCC3(CC2)CCN(Cc2cccc(C(F)(F)F)c2)c2ccccc2O3)nn1 [Compound 151] |  | IC50 [2]: 0.5 to 49 nM
COC(=O)c1ccc(N2CCC3(CC2)CCN(Cc2ccc(C(C)(C)C)cc2)c2cccc(F)c2O3)nc1 [Compound 143] |  | IC50 [2]: 50 to 499 nM
COc1ccccc1CN1CCC2(CCN(C(=O)CNC(C)=O)CC2)Oc2ccccc21 [Compound 24] |  | IC50 [3]: 500 to 10000 nM
CC(=O)NCC(=O)N1CCC2(CC1)CCN(Cc1ccccc1C)c1ccccc1O2 [Compound 41] |  | IC50 [3]: 500 to 10000 nM
CC(C)(C)c1ccc(CN2CCC3(CCN(c4ncc(-c5ccccc5)s4)CC3)Oc3ccccc32)cc1 [Compound 138] | 500 to 10000 nM | 
CC(C)(C)c1ccc(CN2CCC3(CCN(c4ncc(-c5cncnc5)s4)CC3)Oc3ccccc32)cc1 [Compound 135] | 50 to 499 nM | 
CC(C)(C)c1ccc(CN2CCC3(CCN(c4ncc(C(=O)Nc5ccccc5)s4)CC3)Oc3ccccc32)cc1 [Compound 71] | > 10000 nM | 
CC(C)(C)OC(=O)CCNC(=O)c1cnc(N2CCC3(CC2)CCN(Cc2cccc(C(F)(F)F)c2)c2ccccc2O3)s1 [Compound 60] | 50 to 499 nM | 
CCc1ccc(CN2CCC3(CCN(c4ccc(C(=O)NCCC5CC5)cn4)CC3)Oc3ccccc32)cc1 [Compound 177] |  | IC50 [2]: 50 to 499 nM
Cn1cnc(-c2cnc(N3CCC4(CC3)CCN(Cc3ccc(C(C)(C)C)cc3)c3ccccc3O4)s2)n1 [Compound 73] | 0.5 to 49 nM | 
O=C(O)c1cnc(N2CCC3(CC2)CCN(Cc2cccc(C(F)(F)F)c2)c2ccccc2O3)s1 [Compound 54, 2-(5-(3-(trifluoromethyl)benzyl)-4,5-dihydro-3H-spiro[benzo[b][1,4]oxazepine-2,4′-piperidine]-1′-yl)thiazole-5-carboxylic Acid] | 0.5 to 49 nM | 

Compound | IC50 [1] | also measured
NC(=O)c1cnc(N2CCC3(CC2)CCN(Cc2cccc(C(F)(F)F)c2)c2ccccc2O3)s1 [Compound 52] | 0.5 to 49 nM | 
N#Cc1cnc(N2CCC3(CC2)CCN(Cc2cccc(C(F)(F)F)c2)c2ccccc2O3)s1 [Compound 127] | 0.5 to 49 nM | 
CCc1ccc(CN2CCC3(CCN(C(=O)CNC(=O)C[C@@H](C)O)CC3)Oc3ccccc32)cc1 [Compound 8] |  | IC50 [3]: 500 to 10000 nM
CC(C)(C)c1ccc(CN2CCC3(CCN(c4ncc(C(=O)N5CCCC5)s4)CC3)Oc3ccccc32)cc1 [Compound 72] | 500 to 10000 nM | 
CCc1ccc(CN2CCC3(CCN(C(=O)CNC(C)=O)CC3)Oc3c(F)cccc32)cc1 [Compound 47] |  | IC50 [3]: 500 to 10000 nM
CCCCNC(=O)c1ccc(N2CCC3(CC2)CCN(Cc2cccc(C(F)(F)F)c2)c2ccccc2O3)nn1 [Compound 156] |  | IC50 [2]: 0.5 to 49 nM
COC(=O)c1cccc(CN2CCC3(CCN(C(=O)CNC(C)=O)CC3)Oc3ccccc32)c1 [Compound 25] |  | IC50 [3]: 500 to 10000 nM
CC(=O)NCC(=O)N1CCC2(CC1)CCN(Cc1ccc(C)s1)c1ccccc1O2 [Compound 20] |  | IC50 [3]: > 10000 nM
CC(C)(C)c1ccc(CN2CCC3(CCN(c4ncc(-c5ccc(C#N)cc5)s4)CC3)Oc3ccccc32)cc1 [Compound 137] | 500 to 10000 nM | 
CC(C)CCNC(=O)c1ccc(N2CCC3(CC2)CCN(Cc2cccc(C(F)(F)F)c2)c2ccccc2O3)nn1 [Compound 160] |  | IC50 [2]: 50 to 499 nM
COC(=O)c1ccc(N2CCC3(CC2)CCN(Cc2cccc(C(F)(F)F)c2)c2ccccc2O3)nn1 [Compound 170, methyl 6-(5-(3-(trifluoromethyl)benzyl)-4,5-dihydro-3H-spiro-[benzo[b][1,4]oxazepine-2,4′-piperidine]-1′-yl)pyridazine-3-carboxylate] |  | IC50 [2]: 0.5 to 49 nM
CC(=O)NCC(=O)N1CCC2(CC1)CCN(Cc1ccccc1)c1ccccc1O2 [Compound 30] |  | IC50 [3]: 500 to 10000 nM
CC(C)c1ccc(CN2CCC3(CCN(c4ccc(C(=O)NCCC5CC5)nn4)CC3)Oc3ccccc32)cc1 [Compound 181] |  | IC50 [2]: 0.5 to 49 nM
CC(=O)NCC(=O)N1CCC2(CC1)CCN(Cc1cccc(C(F)(F)F)c1)c1cccc(F)c1O2 [Compound 45] |  | IC50 [3]: 500 to 10000 nM
O=C(NCCC1CC1)c1ccc(N2CCC3(CC2)CCN(Cc2ccc(Oc4ccccc4)cc2)c2ccccc2O3)nn1 [Compound 183] |  | IC50 [2]: 0.5 to 49 nM
O=C(NCCCO)c1cnc(N2CCC3(CC2)CCN(Cc2cccc(C(F)(F)F)c2)c2cccc(F)c2O3)s1 [Compound 131] | 0.5 to 49 nM | 
O=C(NCCC1CC1)c1cnc(N2CCC3(CC2)CCN(Cc2cccc(C(F)(F)F)c2)c2ccccc2O3)s1 [Compound 51] | 500 to 10000 nM | 
CCc1ccc(CN2CCC3(CCN(C(=O)CNC(=O)CCN(C)C)CC3)Oc3ccccc32)cc1 [Compound 9] |  | IC50 [3]: > 10000 nM

Continued, in another order:

IC50 [1] | Compound | also measured
50 to 499 nM | CC(C)(C)c1ccc(CN2CCC3(CCN(c4ncc(C(=O)NCC(F)(F)F)s4)CC3)Oc3c(F)cccc32)cc1 [Compound 98] | 
0.5 to 49 nM | CC(C)(C)c1ccc(CN2CCC3(CCN(c4ncc(C(=O)NCCCO)s4)CC3)Oc3c(F)cccc32)cc1 [Compound 96] | 
50 to 499 nM | CC(C)(C)c1ccc(CN2CCC3(CCN(c4ncc(C(=O)NCCC(N)=O)s4)CC3)Oc3c(F)cccc32)cc1 [Compound 91] | 
> 10000 nM | CC(C)(C)CCNC(=O)c1cnc(N2CCC3(CC2)CCN(Cc2ccc(C(C)(C)C)cc2)c2cccc(F)c2O3)s1 [Compound 122] | 
> 10000 nM | CN(C)CCNC(=O)c1cnc(N2CCC3(CC2)CCN(Cc2ccc(C(C)(C)C)cc2)c2cccc(F)c2O3)s1 [Compound 105] | 
50 to 499 nM | CC(C)(C)c1ccc(CN2CCC3(CCN(c4ncc(C(=O)NC[C@@H](O)CO)s4)CC3)Oc3c(F)cccc32)cc1 [Compound 95] | 
0.5 to 49 nM | CC(C)(C)OC(=O)CCNC(=O)c1cnc(N2CCC3(CC2)CCN(Cc2ccc(C(C)(C)C)cc2)c2cccc(F)c2O3)s1 [Compound 116] | 
50 to 499 nM | COCCCNC(=O)c1cnc(N2CCC3(CC2)CCN(Cc2ccc(C(C)(C)C)cc2)c2cccc(F)c2O3)s1 [Compound 108] | 
500 to 10000 nM | CC(C)(C)c1ccc(CN2CCC3(CCN(c4ncc(C(=O)NCc5ccco5)s4)CC3)Oc3c(F)cccc32)cc1 [Compound 102] | 
500 to 10000 nM | CC(C)(C)c1ccc(CN2CCC3(CCN(c4ncc(C(=O)NCCc5ccsc5)s4)CC3)Oc3c(F)cccc32)cc1 [Compound 92] | 
0.5 to 49 nM | CC(C)(C)c1ccc(CN2CCC3(CCN(c4ncc(C(=O)NC[C@H](O)CO)s4)CC3)Oc3ccccc32)cc1 [Compound 126] | 
500 to 10000 nM | CC(C)(C)c1ccc(CN2CCC3(CCN(c4ncc(C(=O)NCCN5CCCC5)s4)CC3)Oc3c(F)cccc32)cc1 [Compound 101] | 
50 to 499 nM | CCN(C)C(=O)c1cnc(N2CCC3(CC2)CCN(Cc2ccc(C(C)(C)C)cc2)c2ccccc2O3)s1 [Compound 66] | 
50 to 499 nM | CC(C)(C)c1ccc(CN2CCC3(CCN(c4ncc(C(=O)NCc5ccccc5F)s4)CC3)Oc3c(F)cccc32)cc1 [Compound 87] | 
0.5 to 49 nM | COC(=O)CCNC(=O)c1cnc(N2CCC3(CC2)CCN(Cc2ccc(C(C)(C)C)cc2)c2ccccc2O3)s1 [Compound 69] | 
50 to 499 nM | Cc1ccc(CNC(=O)c2cnc(N3CCC4(CC3)CCN(Cc3ccc(C(C)(C)C)cc3)c3cccc(F)c3O4)s2)o1 [Compound 104] | 
> 10000 nM | CC(C)(C)c1ccc(CN2CCC3(CCN(c4ncc(C(=O)NCCc5c[nH]cn5)s4)CC3)Oc3c(F)cccc32)cc1 [Compound 111] | 
500 to 10000 nM | CC(C)(C)c1ccc(CN2CCC3(CCN(c4ncc(C(=O)NCCCn5ccnn5)s4)CC3)Oc3c(F)cccc32)cc1 [Compound 86] | 
50 to 499 nM | CCCNC(=O)c1cnc(N2CCC3(CC2)CCN(Cc2ccc(C(C)(C)C)cc2)c2cccc(F)c2O3)s1 [Compound 94] | 
